In DBAASP:
≈ marks a conversion by molar mass, not a printed value. Blank lines part the entries; values can stand above or below the compound they belong to.

What was measured:
Test in all cases: ≥ marks a high value that may be exact or a test limit, other limits are often not marked, values filed in µg/mL are converted to µM
[1] = tested on: Escherichia coli ATCC 25922
[2] = tested on: Klebsiella pneumoniae ATCC 13883
[3] = tested on: Pseudomonas aeruginosa PAO1
[4] = tested on: Staphylococcus aureus USA 300 LAC
[5] = tested on: Staphylococcus aureus USA 300
[6] = tested on: Streptococcus mutans UA159
[7] = tested on: Streptococcus sanguinis ATCC 10556
[8] = tested on: Streptococcus sobrinus ATCC 6715
[9] = tested on: Bacillus subtilis ATCC 6633
[10] = tested on: Candida albicans ATCC 10231
[11] = tested on: Candida parapsilosis ATCC 22019
Cryptococcus neoformans = tested on: Cryptococcus neoformans
[12] = tested on: Escherichia coli ATCC 9637
[13] = tested on: Klebsiella pneumoniae ATCC 27736
[14] = tested on: Pseudomonas aeruginosa ATCC BAA-427
Sporothrix schenckii = tested on: Sporothrix schenckii
[15] = tested on: Staphylococcus aureus ATCC 25923
[16] = tested on: Staphylococcus aureus ATCC 29213
[17] = tested on: Staphylococcus aureus ATCC 33592
[18] = tested on: Staphylococcus aureus ATCC 700698
[19] = tested on: Staphylococcus aureus ATCC 700699
[20] = tested on: Staphylococcus aureus ATCC BAA-44
[21] = tested on: Acinetobacter baumannii ATCC 19606
[22] = tested on: Aspergillus niger ATCC 16404
[23] = tested on: Candida glabrata ATCC 15126
[24] = tested on: Enterococcus faecalis PCM 2673
[25] = tested on: Escherichia coli ATCC 23506
[26] = tested on: Klebsiella pneumoniae ATCC 700603
[27] = tested on: Pseudomonas aeruginosa ATCC 9027
[28] = tested on: Staphylococcus aureus ATCC 9144
[29] = tested on: Streptococcus pneumoniae ATCC 49619
[30] = tested on: Bacillus subtilis KCTC 3068
[31] = tested on: Salmonella typhimurium CMCC 50013
[32] = tested on: Acinetobacter baumannii ATCC 9955
[33] = tested on: Acinetobacter baumannii ATCC BAA-1794
Acinetobacter baumannii = tested on: Acinetobacter baumannii
Candida albicans = tested on: Candida albicans
[34] = tested on: Enterococcus faecalis ATCC 22192
[35] = tested on: Enterococcus faecalis ATCC 51299
[36] = tested on: Escherichia coli ATCC 4157
[37] = tested on: Escherichia coli ATCC 51659
Escherichia coli = tested on: Escherichia coli
[38] = tested on: Klebsiella pneumoniae ATCC 33495
[39] = tested on: Klebsiella pneumoniae ATCC BAA-1705
Klebsiella pneumoniae = tested on: Klebsiella pneumoniae
[40] = tested on: Pseudomonas aeruginosa ATCC 27853
[41] = tested on: Pseudomonas aeruginosa ATCC BAA-2110
Pseudomonas aeruginosa = tested on: Pseudomonas aeruginosa
Staphylococcus aureus = tested on: Staphylococcus aureus
[42] = tested on: Staphylococcus epidermidis

MIC [1]: 25 µM (≈ 31.8 µg/mL)
MIC [2]: 25 µM (≈ 31.8 µg/mL)
MIC [3]: 6.2 µM (≈ 7.88 µg/mL)
MIC [4]: 6.2 µM (≈ 7.88 µg/mL)
MIC [5]: 6.2 µM (≈ 7.88 µg/mL)
SMILES: CC[C@H](C)[C@H](NC(=O)[C@H](CCCN=C(N)N)NC(=O)[C@H](CCCN=C(N)N)NC(=O)[C@H](CC(C)C)NC(=O)[C@H](Cc1c[nH]c2ccccc12)NC(=O)[C@H](CCCN=C(N)N)NC(=O)[C@@H](N)Cc1c[nH]c2ccccc12)C(=O)N[C@@H](Cc1c[nH]c2ccccc12)C(N)=O [WRWLRRIW]

MIC [6]: ≥ 38.2 µM
MIC [7]: ≥ 153 µM
MIC [8]: ≥ 38.2 µM
SMILES: NCCCC[C@H](NC(=O)CNC(=O)[C@H](CCCCN)NC(=O)[C@H](CCCCN)NC(=O)[C@H](Cc1ccccc1)NC(=O)[C@H](Cc1ccccc1)NC(=O)[C@H](CCCCN)NC(=O)[C@H](CCCCN)NC(=O)[C@H](Cc1ccccc1)NC(=O)[C@H](Cc1ccccc1)NC(=O)[C@H](CCCCN)NC(=O)CNC(=O)[C@@H](N)Cc1c[nH]c2ccccc12)C(=O)O [WGKFFKKFFKKGK]

MIC [32]: 15.9 µM (≈ 42 µg/mL)
MIC [33]: 3.8 µM (≈ 10 µg/mL)
MIC (Acinetobacter baumannii): 12.2 µM (≈ 32 µg/mL)
MIC [10]: > 48.6 µM
MIC (Candida albicans): > 48.6 µM
MIC [34]: 15.9 µM (≈ 42 µg/mL)
MIC [35]: 15.9 µM (≈ 42 µg/mL)
MIC [1]: 12.2 µM (≈ 32 µg/mL)
MIC [36]: 7.97 µM (≈ 21 µg/mL)
MIC [37]: ≥ 53.2 µM
MIC (Escherichia coli): 34.4 µM (≈ 90.5 µg/mL)
MIC [2]: 24.3 µM (≈ 64 µg/mL)
MIC [38]: 1.97 µM (≈ 5.2 µg/mL)
MIC [39]: 10.6 µM (≈ 28 µg/mL)
MIC (Klebsiella pneumoniae): 48.6 µM (≈ 128 µg/mL)
MIC [40]: 24.3 µM (≈ 64 µg/mL)
MIC [27]: 3.8 µM (≈ 10 µg/mL)
MIC [41]: 15.9 µM (≈ 42 µg/mL)
MIC (Pseudomonas aeruginosa): 8.59 µM (≈ 22.6 µg/mL)
MIC [15]: 10.6 µM (≈ 28 µg/mL)
MIC [16]: 48.6 µM (≈ 128 µg/mL)
MIC [17]: 10.6 µM (≈ 28 µg/mL)
MIC (Staphylococcus aureus): 24.3 µM (≈ 64 µg/mL)
MIC [42]: 24.3 µM (≈ 64 µg/mL)
SMILES: CC[C@H](C)[C@H](NC(=O)[C@H](CCCCN)NC(=O)[C@H](CCCN=C(N)N)NC(=O)[C@H](CCCN=C(N)N)NC(=O)[C@H](CC(C)C)NC(=O)[C@H](CCCCN)NC(=O)[C@H](CCCCN)NC(=O)[C@H](Cc1ccccc1)NC(=O)[C@H](CC(C)C)NC(=O)CN)C(=O)N[C@@H](CCCCN)C(=O)N[C@@H](CCCCN)C(=O)NCC(=O)N[C@@H](Cc1ccccc1)C(=O)N[C@@H](CCCCN)C(=O)N[C@@H](CCCCN)C(=O)N[C@H](C(=O)N[C@@H](Cc1ccccc1)C(=O)N[C@@H](CCCCN)C(=O)N[C@@H](CCCN=C(N)N)C(=O)N[C@@H](CC(C)C)C(=O)O)[C@@H](C)CC [GLFKKLRRKIKKGFKKIFKRL]

Further lines, the compound ahead of its results:

SMILES: CC[C@H](C)[C@H](NC(=O)[C@H](C)NC(=O)[C@H](CCCCN)NC(=O)CNC(=O)[C@H](C)NC(=O)[C@H](Cc1cnc[nH]1)NC(=O)[C@@H](NC(=O)[C@H](C)NC(=O)[C@@H]1CCCN1C(=O)[C@H](CCCCN)NC(=O)[C@@H](NC(=O)[C@H](CC(C)C)NC(=O)[C@H](Cc1c[nH]c2ccccc12)NC(=O)CNC(=O)[C@H](Cc1ccccc1)NC(=O)[C@@H](N)Cc1ccccc1)[C@@H](C)CC)[C@@H](C)CC)C(=O)N[C@@H](Cc1cnc[nH]1)C(=O)NCC(=O)N[C@@H](CC(C)C)C(=O)N[C@H](C(=O)N[C@@H](Cc1cnc[nH]1)C(=O)N[C@@H](CCCN=C(N)N)C(=O)N[C@@H](CCCN=C(N)N)C(=O)N[C@@H](CCCN=C(N)N)C(=O)N[C@@H](Cc1cnc[nH]1)C(=O)O)[C@@H](C)CC [FFGWLIKPAIHAGKAIHGLIHRRRH]
MIC [9]: 3 µM (≈ 8.8 µg/mL)
MIC [10]: 3 µM (≈ 8.8 µg/mL)
MIC [11]: 6.8 µM (≈ 19.9 µg/mL)
MIC (Cryptococcus neoformans): 6.8 µM (≈ 19.9 µg/mL)
MIC [12]: 3.3 µM (≈ 9.68 µg/mL)
MIC [13]: 3.3 µM (≈ 9.68 µg/mL)
MIC [14]: 6.8 µM (≈ 19.9 µg/mL)
MIC (Sporothrix schenckii): 13.6 µM (≈ 39.9 µg/mL)
MIC [15]: 3 µM (≈ 8.8 µg/mL)
MIC [16]: 1.6 µM (≈ 4.69 µg/mL)
MIC [17]: 0.8 µM (≈ 2.35 µg/mL)
MIC [18]: 1.6 µM (≈ 4.69 µg/mL)
MIC [19]: 1.6 µM (≈ 4.69 µg/mL)
MIC [20]: 1.6 µM (≈ 4.69 µg/mL)

SMILES: CC[C@H](C)[C@H](NC(=O)[C@H](CC(C)C)NC(=O)[C@H](CCCN=C(N)N)NC(=O)[C@H](Cc1c[nH]c2ccccc12)NC(=O)[C@@H]1CCCN1C(=O)[C@H](Cc1c[nH]c2ccccc12)NC(=O)[C@H](Cc1c[nH]c2ccccc12)NC(=O)[C@@H]1CCCN1C(=O)[C@H](Cc1c[nH]c2ccccc12)NC(=O)[C@H](CCCN=C(N)N)NC(=O)[C@H](CCCN=C(N)N)NC(=O)[C@@H](N)CCCCN)C(N)=O [KRRWPWWPWRLI]
MIC [21]: 8.99 µM (≈ 16 µg/mL)
MIC [22]: ≥ 36 µM
MIC [10]: 18 µM (≈ 32 µg/mL)
MIC [23]: ≥ 36 µM
MIC [24]: 8.99 µM (≈ 16 µg/mL)
MIC [25]: 2.25 µM (≈ 4 µg/mL)
MIC [1]: 4.49 µM (≈ 8 µg/mL)
MIC [26]: 2.25 µM (≈ 4 µg/mL)
MIC [27]: 2.25 µM (≈ 4 µg/mL)
MIC [15]: 4.49 µM (≈ 8 µg/mL)
MIC [28]: 4.49 µM (≈ 8 µg/mL)
MIC [29]: 4.49 µM (≈ 8 µg/mL)

SMILES: NCCCC[C@H](NC(=O)[C@H](CCCN=C(N)N)NC(=O)CNC(=O)[C@@H](N)Cc1ccc(O)cc1)C(=O)N[C@@H](CCCCN)C(=O)N[C@@H](CCCN=C(N)N)C(=O)N[C@@H](CCCN=C(N)N)C(=O)N[C@@H](CCC(N)=O)C(=O)N[C@@H](CCCN=C(N)N)C(=O)N[C@@H](CCCN=C(N)N)C(=O)N[C@@H](CCCN=C(N)N)C(=O)O [YGRKKRRQRRR]
MIC [30]: 26.4 µM (≈ 41.2 µg/mL)
MIC [1]: 15.5 µM (≈ 24.1 µg/mL)
MIC [31]: 29 µM (≈ 45.2 µg/mL)
MIC [16]: 16.6 µM (≈ 25.9 µg/mL)
